In patent US20250179045A1, “LPAR1 ANTAGONISTS AND USES THEREOF” (Contineum Therapeutics, Inc., priority 2021, published 2025):

Biological target: human LPA1 (Homo sapiens, UniProt Q92633)
Assay: In vitro functional assay of lysophosphatidic acid receptor 1 activity (calcium flux)
Type: cell-based
Conditions: B103 cells stably expressing human LPA1; Fluo-4 NW calcium flux after lysophosphatidic acid (18:1) at EC80; compounds 100 pM to 10 μM; read-out: LPA1 IC50
Procedure: In vitro functional assay of lysophosphatidic acid receptor 1 activity
Primary compound plates were prepared in 100% DMSO (Sigma-Aldrich), secondary compound plates were prepared at 10× concentration in DiVEM (Invitrogen), and tertiary compound plates were prepared at 3x concentration in assay buffer containing HBSS (no Ca^+2/Mg^+2, Invitrogen) and 0.1% BSA (Sigma-Aldrich). Fluo-4 NW calcium assay dye (Invitrogen) was prepared as per manufacturer's recommendations in assay buffer. B103 cells stably expressing human LPA1(J. Chun lab, UCSD) were grown to confluency in DMEM media (Invitrogen) containing 10% FBS (ATCC), […] (Sigma-Aldrich) and […] Geneticin (Sigma-Aldrich), and detached with Accutase (Sigma-Aldrich) prior to assay. The freshly detached cells were resuspended in growth media and plated in black, clear-bottom 96-well plates (Costar) containing compound (i.e., secondary compound plate) at a density of 5×10^4 cells/well. Once plated, cells were left at room temperature for 30 minutes and then transferred to a 37° C., […] incubator for 24 hours. After 24 hours, the growth media was then removed and freshly prepared Fluo-4 NW calcium assay dye was added to cells. Compounds (i.e. tertiary compound plates) were then added back to the dye/cells, returned to the incubator for 30 minutes, and then kept at room temperature for an additional 30 minutes. Finally, lysophosphatidic acid (18:1) at the EC80 concentration was added and calcium flux measured using FlexStation 3 (Molecular Devices). Sigmoidal dose-response curves were generated by measuring […] over 45 sec and calculating the area under the curve. Dose response curves and IC50 values were generated using Prism (GraphPad). Compounds were tested at a final concentration range of 100 pM to 10 μM in 0.10% DMSO.

human LPA1, sequence (Q92633 whole entry): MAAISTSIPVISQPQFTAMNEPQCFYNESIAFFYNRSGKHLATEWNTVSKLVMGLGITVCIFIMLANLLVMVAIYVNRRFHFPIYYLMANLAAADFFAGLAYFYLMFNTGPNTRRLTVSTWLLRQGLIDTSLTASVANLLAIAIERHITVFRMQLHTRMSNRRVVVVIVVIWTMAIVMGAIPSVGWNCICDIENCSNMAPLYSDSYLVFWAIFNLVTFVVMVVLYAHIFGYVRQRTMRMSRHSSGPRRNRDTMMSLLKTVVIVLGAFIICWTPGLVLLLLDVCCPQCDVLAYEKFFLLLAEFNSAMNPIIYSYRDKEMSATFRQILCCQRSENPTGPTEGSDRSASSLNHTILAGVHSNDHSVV

SMILES: COc1ccc(NC(=O)C2(c3ccccc3C(C)C)CCC(S(C)(=O)=O)CC2)c(OC(F)F)n1 (stereo not drawn) [Example 100, N-(2-(difluoromethoxy)-6-methoxypyridin-3-yl)-1-(2-isopropylphenyl)-4-(methylsulfonyl)cyclohexane-1-carboxamide]
- IC50: 0.1 to 1 µM

SMILES: Cc1cc(OC(F)F)c(NC(=O)C2(c3ccccc3C(C)C)CC(=O)N(C)C2)cn1 (stereo not drawn) [Example 6, N-(4-(difluoromethoxy)-6-methylpyridin-3-yl)-3-(2-isopropylphenyl)-1-methyl-5-oxopyrrolidine-3-carboxamide]
- IC50: 0.1 to 1 µM

SMILES: Cc1ccc(NC(=O)C2(c3ccccc3C(C)C)CC(C)(O)C2)c(OC(F)F)n1 (single isomer, unassigned) [Example 51-isomer A, N-(2-(difluoromethoxy)-6-methylpyridin-3-yl)-3-hydroxy-1-(2-isopropylphenyl)-3-methylcyclobutane-1-carboxamide]
- IC50: 0.1 to 1 µM

SMILES: Cc1ccc(NC(=O)C2(c3ccccc3C(C)C)CNC(=O)C2)c(OC(F)F)n1 (stereo not drawn) [Example 9, N-(2-(difluoromethoxy)-6-methylpyridin-3-yl)-3-(2-isopropylphenyl)-5-oxopyrrolidine-3-carboxamide]
- IC50: 0.01 to 0.1 µM

SMILES: Cc1ccc(NC(=O)C2(c3ccccc3C(C)C)CC(CC(=O)N(C)C)C2)c(OC(F)F)n1 (stereo not drawn) [Example 67, N-(2-(difluoromethoxy)-6-methylpyridin-3-yl)-3-(2-(dimethylamino)-2-oxoethyl)-1-(2-isopropylphenyl)cyclobutane-1-carboxamide]
- IC50: 0.1 to 1 µM

SMILES: COc1cc(Br)ccc1NC(=O)C1(c2ccccc2C(C)C)CNC(=O)C1 (stereo not drawn) [Example 104, N-(4-bromo-2-methoxyphenyl)-3-(2-isopropylphenyl)-5-oxopyrrolidine-3-carboxamide]
- IC50: 0.01 to 0.1 µM

SMILES: COc1ccc(NC(=O)C2(c3ccccc3C(C)C)CCC(C(N)=O)CC2)c(OC(F)F)n1 (mixture of isomers) [Example 96, N^1-(2-(difluoromethoxy)-6-methoxypyridin-3-yl)-1-(2-isopropylphenyl)cyclohexane-1,4-dicarboxamide]
- IC50: 0.1 to 1 µM

SMILES: COc1ccc(NC(=O)C2(c3ccccc3C(C)C)CCC(S(=O)(=O)N(C)C)CC2)c(OC(F)F)n1 (mixture of isomers) [Example 98, N-(2-(difluoromethoxy)-6-methoxypyridin-3-yl)-4-(N,N-dimethylsulfamoyl)-1-(2-isopropylphenyl)cyclohexane-1-carboxamide]
- IC50: 0.1 to 1 µM

SMILES: CNC1CC(C(=O)Nc2ccc(C)nc2OC(F)F)(c2ccccc2C(C)C)C1 (mixture of isomers) [Example 38, N-(2-(difluoromethoxy)-6-methylpyridin-3-yl)-1-(2-isopropylphenyl)-3-(methylamino)cyclobutane-1-carboxamide]
- IC50: 0.1 to 1 µM

SMILES: Cc1ccc(NC(=O)C2(c3ccccc3C(C)C)CC(C(=O)N(C)C)C2)c(OC(F)F)n1 (stereo not drawn) [Example 66, N^1-(2-(difluoromethoxy)-6-methylpyridin-3-yl)-1-(2-isopropylphenyl)-N^3,N^3-dimethylcyclobutane-1,3-dicarboxamide]
- IC50: 0.1 to 1 µM

SMILES: Cc1ccc(NC(=O)C2(c3ccccc3C(C)C)CC(N(C)C)C2)c(OC(F)F)n1 (stereo not drawn) [Example 39, N-(2-(difluoromethoxy)-6-methylpyridin-3-yl)-3-(dimethylamino)-1-(2-isopropylphenyl)cyclobutane-1-carboxamide]
- IC50: 0.1 to 1 µM

SMILES: Cc1ccc(NC(=O)C2(c3ccccc3C(C)C)CCOCC2)c(OC(F)F)n1 [Example 13, N-(2-(difluoromethoxy)-6-methylpyridin-3-yl)-4-(2-isopropylphenyl)tetrahydro-2H-pyran-4-carboxamide]
- IC50: 0.01 to 0.1 µM

SMILES: COc1ccc(NC(=O)C2(c3ccccc3C(C)C)CCC(O)CC2)c(OC(F)F)n1 (mixture of isomers) [Example 81, N-(2-(difluoromethoxy)-6-methoxypyridin-3-yl)-4-hydroxy-1-(2-isopropylphenyl)cyclohexane-1-carboxamide]
- IC50: 0.01 to 0.1 µM

SMILES: COC[C@H](C)Oc1cc(Cl)ncc1NC(=O)C1(c2ccccc2C(C)C)COC1 [Example 34, (S)-N-(6-chloro-4-((1-methoxypropan-2-yl)oxy)pyridin-3-yl)-3-(2-isopropylphenyl)oxetane-3-carboxamide]
- IC50: 0.01 to 0.1 µM

SMILES: COc1cc(C)ccc1NC(=O)C1(c2ccccc2C(C)C)CNC(=O)C1 (stereo not drawn) [Example 101, 3-(2-isopropylphenyl)-N-(2-methoxy-4-methylphenyl)-5-oxopyrrolidine-3-carboxamide]
- IC50: 0.01 to 0.1 µM

SMILES: Cc1ccc(NC(=O)C2(c3ccccc3C(C)C)COC2)c(OC(F)F)n1 [Example 17, N-(2-(difluoromethoxy)-6-methylpyridin-3-yl)-3-(2-isopropylphenyl)oxetane-3-carboxamide]
- IC50: 0.01 to 0.1 µM

SMILES: COc1ccc(NC(=O)C2(c3ccccc3C(C)C)CCC(N=[N+]=[N-])CC2)c(OC(F)F)n1 (stereo not drawn) [Example 84, 4-azido-N-(2-(difluoromethoxy)-6-methoxypyridin-3-yl)-1-(2-isopropylphenyl)cyclohexane-1I-carboxamide]
- IC50: 0.01 to 0.1 µM

SMILES: COc1cc(Cl)ncc1NC(=O)C1(c2ccccc2C(C)C)COC1 [Example 19, N-(6-chloro-4-methoxypyridin-3-yl)-3-(2-isopropylphenyl)oxetane-3-carboxamide]
- IC50: 0.01 to 0.1 µM

SMILES: CNS(=O)(=O)C1CCC(C(=O)Nc2ccc(OC)nc2OC(F)F)(c2ccccc2C(C)C)CC1 (stereo not drawn) [Example 99, N-(2-(difluoromethoxy)-6-methoxypyridin-3-yl)-1-(2-isopropylphenyl)-4-(N-methylsulfamoyl)cyclohexane-1-carboxamide]
- IC50: 0.1 to 1 µM

SMILES: COc1cc(Cl)cnc1NC(=O)C1(c2ccccc2C(C)C)COC1 [Example 20, N-(5-chloro-3-methoxypyridin-2-yl)-3-(2-isopropylphenyl)oxetane-3-carboxamide]
- IC50: > 1 µM

SMILES: COc1ccc(NC(=O)C2(c3ccccc3C(C)C)CCC(NC(C)=O)CC2)c(OC(F)F)n1 (mixture of isomers) [Example 85, 4-acetamido-N-(2-(difluoromethoxy)-6-methoxypyridin-3-yl)-1-(2-isopropylphenyl)cyclohexane-1-carboxamide]
- IC50: 0.1 to 1 µM

SMILES: COc1ccc(NC(=O)C2(c3ccccc3C(C)C)CC(CO)C2)c(OC)n1 (stereo not drawn) [Example 60, N-(2,6-dimethoxypyridin-3-yl)-3-(hydroxymethyl)-1-(2-isopropylphenyl)cyclobutane-1-carboxamide]
- IC50: 0.01 to 0.1 µM

SMILES: COc1ccc(NC(=O)C2(c3ccccc3C(C)C)CC(CC#N)C2)c(OC(F)F)n1 (stereo not drawn) [Example 111, 3-(cyanomethyl)-N-(2-(difluoromethoxy)-6-methoxypyridin-3-yl)-1-(2-isopropylphenyl)cyclobutane-1-carboxamide]
- IC50: 0.01 to 0.1 µM

SMILES: COc1cc(C)ccc1NC(=O)C1(c2ccccc2C(C)C)CNC(=O)C1 (single isomer, unassigned) [Example 102-isomer B, 3-(2-isopropylphenyl)-N-(2-methoxy-4-methylphenyl)-5-oxopyrrolidine-3-carboxamide]
- IC50: > 1 µM

SMILES: COc1ccc(NC(=O)C2(c3ccccc3C(C)C)CNC(=O)C2)c(OC(F)F)n1 (single isomer, unassigned) [Example 8, N-(2-(difluoromethoxy)-6-methoxypyridin-3-yl)-3-(2-isopropylphenyl)-5-oxopyrrolidine-3-carboxamide]
- IC50: < 0.01 µM

SMILES: COc1ccc(NC(=O)[C@]2(c3ccccc3C(C)C)C[C@@H](CC(N)=O)C2)c(OC(F)F)n1 [Example 118, trans-3-(2-amino-2-oxoethyl)-N-(2-(difluoromethoxy)-6-methoxypyridin-3-yl)-1-(2-isopropylphenyl)cyclobutane-1-carboxamide]
- IC50: 0.01 to 0.1 µM

SMILES: CC(C)c1ccccc1C1(C(=O)Nc2ncc(Cl)cc2OC(F)F)CC(CC(=O)O)C1 (stereo not drawn) [Example 47, 2-(3-((5-chloro-3-(difluoromethoxy)pyridin-2-yl)carbamoyl)-3-(2-isopropylphenyl)cyclobutyl)acetic acid]
- IC50: 0.01 to 0.1 µM

SMILES: Cc1ccc(NC(=O)C2(c3ccccc3C(C)C)CC(Cn3ccnn3)C2)c(OC(F)F)n1 (stereo not drawn) [Example 72, 3-((1H-1,2,3-triazol-1-yl)methyl)-N-(2-(difluoromethoxy)-6-methylpyridin-3-yl)-1-(2-isopropylphenyl)cyclobutane-1-carboxamide]
- IC50: 0.01 to 0.1 µM

SMILES: CC(C)c1ccccc1C1(C(=O)Nc2ncc(Cl)cc2OC(F)F)CC(=O)N(C)C1 (single isomer, unassigned) [Example 7, N-(5-chloro-3-(difluoromethoxy)pyridin-2-yl)-3-(2-isopropylphenyl)-1-methyl-5-oxopyrrolidine-3-carboxamide]
- IC50: 0.1 to 1 µM

SMILES: Cc1ccc(NC(=O)C2(c3ccccc3C(C)C)CC(N(C)S(C)(=O)=O)C2)c(OC(F)F)n1 (stereo not drawn) [Example 44, N-(2-(difluoromethoxy)-6-methylpyridin-3-yl)-1-(2-isopropylphenyl)-3-(N-methylmethylsulfonamido)cyclobutane-1-carboxamide]
- IC50: 0.1 to 1 µM
